The numbers were not newly measured in publication PMC2074590 (British Journal of Cancer, 1996), which cites them from elsewhere.

One data set relates to breast cancer cells. On the set-up: method as in Wakeling and Bowler, 1987, 1988. The note with it: ref Wakeling and Bowler, 1987, 1988; cited from earlier work.
For data set [1] the following is noted: ref Willemse et al., 1990; cited from earlier work.
The next data set deals with advanced breast cancer. The following applies: ref Cole et al., 1971, Patterson et al., 1981; cited from earlier work.
Data set [2] concerns Ki67, ER, PgR, pS2 in primary breast cancer. The following applies: similar clinical experiments; ref Howell et al., 1988; Roberston et al., 1991; Clarke et al., 1993; Nicholson et al., 1994; cited from earlier work.

As for `CCCCN(C)C(=O)CCCCCCCCCC[C@@H]1Cc2cc(O)ccc2[C@H]2CC[C@]3(C)[C@@H](O)CC[C@H]3[C@H]12` [ICI 164384, reference compound], the “Potency as inhibitor of cell growth in vitro relative to tamoxifen” value in the data set with breast cancer cells was “up to two orders of magnitude more potent than tamoxifen”.

In the case of `CC(=O)O[C@]1(C(C)=O)CC[C@H]2[C@@H]3C=C(C)C4=CC(=O)CC[C@]4(C)[C@H]3CC[C@@]21C` [megestrol acetate], the “Patients with weight gain of > 5% of body weight” value in data set [1] is on record as 25%. As to `CC/C(=C(\c1ccccc1)c1ccc(OCCN(C)C)cc1)c1ccccc1` [tamoxifen, reference compound], the “Median duration of remission” value in the data set on advanced breast cancer is “about 18 months”. In addition, in data set [2], the ER expression result is reported as “no change in ER expression” and the PgR expression entry is “slightly increased PgR expression”.
